Assays:
[1] = test system: sLucAβ; test: Effect of small molecule aggregation inhibitors on secreted reporter in inducible cell lines; type: cell-based; conditions: 1 μM compound, 24 hours
Method: (§1) 293T FlipInTrex (Invitrogen) cells. 293T FlipInTrex cells were grown as described above, using Tet Approved Fetal Bovine Serum (Clontech) and supplementing the medium with Zeocin 100 μg/mL (Invitrogen) and Blasticidin 15 μg/ml (InVivoGen, San Diego, USA). Zeocin selects for the lacZeo inserted into FRT sites in the genome, and Blasticidin selects for Tet repressor expression. For the generation of isogenic stable doxycycline inducible cell lines, cells were co-transfected overnight using Lipofectamine 2000 with the pcDNA5/FRT/TO vectors containing the fusion proteins-IRES-(NLS)3EGFP cassettes, and the pOGG-Flp recombinase plasmid (Invitrogen) at a ratio pcDNA/pOGG of 1:9. On day 2, cells were replated at −25% confluency, and selection for recombined clones was started by supplementing the medium with 75 μg/ml Hygromycin (InvivoGen) and Zeocin 100 μg/mL. Medium was exchanged every 2-3 days until colonies appeared. Cells were adapted to cell culture media containing 5% Tet approved Fetal Bovine Serum (Clontech), and 5% Serum Replacement 3 (Sigma). […] Expression of the chimeric reporter proteins was induced by addition of 0.75 μg/mL Doxycycline (Sigma-Aldrich) to cell culture medium, and tested for luciferase activity and western-blot (see below).
Effect of Small Molecule Inhibitors of Aβ42 aggregation in inducible cell lines. Congo Red, Rosmarinic acid, Quercetin, scyllo-inositol, and (−)-Epigallocatechin gallate (EGCG) were purchased from Sigma-Aldrich, and dissolved in DMSO. Cells were plated in 96-well plates and allowed to attach overnight. Cell medium without antibiotics was prepared containing 2× of the final compound concentration (1 μM) and 2× of final doxycycline concentration (0.75 μgr/ml) and diluted to 1× with media in the well. Control cells were treated with medium containing the same volume of DMSO. 8 wells were treated per condition. After 24 hours, 4 wells were harvested for luciferase assays, and 4 wells were used for cell survival assays.
sLuc Metridia activity. sLuc Metridia activity was measured using the same plates and instrument described above. Metridia reagent was prepared as described in (G. A. Stepanyuk et al., 2008, Protein Expr Purif 61, 142). Coelenterazine, native (Biosynth AG, Staad, Switzerland) was brought up at 1.43 mM in Methanol acidified with 1N HCl and diluted to 7.2 μM in 20 mM Tris-HCl 0.3M NaCl pH7.5 (Sigma-Aldrich). 20 μl of cell medium were transferred to white 96-well plates, 50 μl of reagent was injected, and every well was read for 5 s followed by a 3s delay. sLuciferase activity is measured in Relative Luminiscence Units (RLU).
(§2) Cell survival was measured using Cell titer Blue kit (Promega). […] After 1 hour incubation at 37° C., fluorescence was recorded in a Spectramax M5 plate reader, using excitation at 560 nm and emission at 590 nm in Relative Fluorescence Units (RFU).
(§3) Effect of small molecule inhibitors of Aβ42 in the inducible cell lines. The ratio luciferase activity/cell survival (Rsmall molecule) was calculated as shown in eq. […] Four technical replicates were measured per molecule for each test. Standard deviation was calculated using eq. […]
(§4) Comparing the Fold inhibition ratio of a given molecule in the Aβ42 and SH3 sensors allows the identification of molecules that change the ratios by mechanisms non-specific to aggregation such as toxicity or interference with luciferase activity. […] Standard errors were calculated using Error propagation theory. […]

[2] = test system: cLucAβ; test: Effect of small molecule aggregation inhibitors on cytoplasmic reporter in inducible cell lines; type: cell-based; conditions: 1 μM compound, 24 hours
Method: as §1
Effect of Small Molecule Inhibitors of Aβ42 aggregation in inducible cell lines. Congo Red, Rosmarinic acid, Quercetin, scyllo-inositol, and (−)-Epigallocatechin gallate (EGCG) were purchased from Sigma-Aldrich, and dissolved in DMSO. Cells were plated in 96-well plates and allowed to attach overnight. […]
cLuciferase Firefly activity. […] 20 μl of cellular lysate were transferred to white 96-well plates (Corning), 100 μl of luciferase reagent were injected, and every well was read for 5 s followed by 3 s delay to minimize cross-talk between wells using a Modulus Microplate Multimode Reader (Turner Biosystems Inc., Sunnyvale, Calif., USA). cLuciferase activity is measured in Relative Luminiscence Units (RLU).
as §2, §3, §4

[3] = biological target: T1, synthetic Aβ42 (Homo sapiens, UniProt P05067); test: Inhibition of in vitro aggregation of synthetic Aβ42 by small molecules (ThT fluorescence); type: biochemical; conditions: 1 μM compound, 25 μM Aβ42, 1 day at 30° C.
T1 construct: a fragment comprising residues 672-713 of Aβ (“Aβ42”); purchased Bachem
T1 sequence (P05067 672-713): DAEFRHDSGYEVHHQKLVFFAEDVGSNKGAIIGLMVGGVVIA
Method: (§5) Aβ42, Aβ40, Aβ42F20E and Aβ42E22G peptides (Bachem, Torrance, USA) were disaggregated using Hexafluoro-2-propanol (HFIP, Sigma-Aldrich) following the protocol described elsewhere (C. Goldsbury, et al., 2005, J Mol Biol 352, 282), and aliquoted into low protein binding tubes (Eppendorf).
Effect of small molecule inhibitors of Aβ42 aggregation. 2 mM Aβ42 stock solutions in DMSO) were sonicated for 5 minutes, and diluted to final 25 μM concentration in PBS (Gibco). Small molecules were added to final 1 μM concentration, the final DMSO concentration in all samples and control was kept equal. Samples were incubated for 1 day at 30° C., and tested for Aβ42 aggregation using Thioflaving T (Tht, Sigma-Aldrich) binding monitored by fluorescence (excitation 450 nm/emission 485 nm). Tht was prepared at 5 μM in 20 mM Glycine pH=8 buffer. 10 μl of sample were plated in triplicates in clear bottom non-binding black plates (Corning), and 100 μl of Tht were added. After 5 minutes of incubation at room temperatures, fluorescence was read. Data were corrected by Tht alone fluorescence, and normalized by the Tht intensity of the control solution, Aβ42+DMSO. Ratios and standard deviations were calculated as described in the Data Analysis section.

[4] = In vitro Aβ42 aggregation kinetics by Thioflavin T fluorescence; type: physicochemical; conditions: 25 μM in PBS, 30° C., ThT
Method: as §5
In vitro Aβ42 kinetic experiment. 25 μM Aβ42 in PBS was incubated at 30° C. Aliquots were withdrawn at different time points, and Tht binding was measured in triplicates.

[5] = test system: cytoplasmic and secreted reporters; test: Thapsigargin effect on activity of cytoplasmic and secreted reporters in inducible 293FlpInTrex cell lines; type: cell-based; conditions: 24 hours, different concentrations
Method: FIG. 16: Changes in proteostasis pathways 96 hours postinduction (A) relative mRNA levels of cells expressing cLucAβ or sLucAβ versus cLucSH3 or sLucSH3 measured by qPCR; (B) Protein expression analysed by Western blot. (C) Activity of cytoplasmic and secreted reporters normalized by cell survival in the presence of different concentrations of Thapsigargin compared to solvent alone. Data are means±s.d. Experiments were carried out using doxycyline inducible 293FlpInTrex cell lines expressing the aggregation sensors.
293T FlipInTrex (Invitrogen) cells. 293T FlipInTrex cells were grown as described above, using Tet Approved Fetal Bovine Serum (Clontech) and supplementing the medium with Zeocin 100 μg/mL (Invitrogen) and Blasticidin 15 μg/ml (InVivoGen, San Diego, USA). Zeocin selects for the lacZeo inserted into FRT sites in the genome, and Blasticidin selects for Tet repressor expression. […]
as §2

With `O=C(/C=C/c1ccc(O)c(O)c1)O[C@H](Cc1ccc(O)c(O)c1)C(=O)O` [Rosmarinic acid] the “effect on sLucAβ activity compared to solvent alone” value [1] was “significantly increased activity” and the “effect on cLucAβ activity compared to solvent alone” value [2] was “no effect”.
With (−)-Epigallocatechin gallate [EGCG] the “effect on sLucAβ activity compared to solvent alone” value [1] was “significantly increased activity” and the “effect on cLucAβ activity compared to solvent alone” value [2] was “no effect”.
With `Nc1c(/N=N/c2ccc(-c3ccc(/N=N/c4cc(S(=O)(=O)O)c5ccccc5c4N)cc3)cc2)cc(S(=O)(=O)O)c2ccccc12` [Congo Red] the “effect on sLucAβ activity compared to solvent alone” value [1] was “did not increase the activity” and the “inhibition of in vitro aggregation of synthetic Aβ42 by ThT fluorescence” value [3] was “potently inhibited”.
With “synthetic Aβ peptide: synthetic Aβ42 peptide (Bachem) used for in vitro aggregation” the “exponential phase of in vitro aggregation” value [4] was 6 to 24 h and the “plateau of in vitro aggregation” value [4] was 24 to 72 h.
For `O=c1c(O)c(-c2ccc(O)c(O)c2)oc2cc(O)cc(O)c12` [Quercetin], the “effect on sLucAβ activity compared to solvent alone” value [1] was “significantly increased activity” and the “effect on cLucAβ activity compared to solvent alone” value [2] was “no effect”.
For `C/C=C(/C)C(=O)O[C@H]1C(C)=C2[C@H]([C@@H]1OC(=O)CCCCCCC)[C@@](C)(OC(C)=O)C[C@H](OC(=O)CCC)[C@@]1(O)[C@H]2OC(=O)[C@@]1(C)O` [TG, Thapsigargin], the “effect on aggregation sensor activity normalized by cell survival” value [5] was “increase of only sAβ activity in a TG dose-dependent manner”.
With `O[C@H]1[C@H](O)[C@@H](O)[C@H](O)[C@@H](O)[C@@H]1O` [Scilloinositol, scyllo-inositol] the “effect on sLucAβ activity compared to solvent alone” value [1] was “significantly increased activity” and the “effect on cLucAβ activity compared to solvent alone” value [2] was “no effect”.

From US20120141983A1, “Quantitative Aggregation Sensors” (priority 2010, published 2012)
